“And” between values parts separate entries of the source, which are not always exact repeats. Identical values can stand only once.
Assays:
[1] = test system: xenograft or orthotopic tumour; set-up: method as in earlier work; details: 5- 25 mg kg-1 day-1 intraperitoneally, ref Regenass et al, 1994, Dorhout et al, 1995, Gutman et al, Manni et al, Delworth et al, 1997, Svensson et al, Mi et al, 1998; cited from earlier work
[2] = phase I pharmacokinetics in plasma and urine; format: in vivo, human
Description: (§1) Preclinical testing confirmed promising antiproliferative activity. […] Physical examination was performed weekly. […] N-Acetyl-SPERMINE SSAT SSAT […] Analysis was descriptive only. […] Patient characteristics are described in Table 1. […] Three patients completed the full six cycles of treatment. Of these, two received the combination 5FU/SAM486A from cycle 3 onwards. Five patients recorded a best response of stable disease. Of these, three received the combination 5FU/SAM486A from cycle 3 onwards (see below).

[3] = phase I safety and tolerability, 120 h continuous infusion every 4 weeks
[4] = short-term single or repeat bolus injections of high doses; preclinical background, ref not given; cited from earlier work
[5] = test system: variety of different tumour cell lines; set-up: method as in H Mett, unpublished data; details: including multi-drug-resistant and highly metastatic variants; ref H Mett, unpublished data; cited from earlier work
[6] = test system: human HCT-116 tumour cell line; set-up: method as in data on file; details: subcutaneous HCT-116 in nude mice; ref data on file; cited from earlier work
tumour = test system: tumour; set-up: method as in Gschaidmeier et al, 1999, O'Reilly et al, 2000; details: in vitro and in vivo; ref Gschaidmeier et al, 1999, O'Reilly et al, 2000; cited from earlier work
[7] = test system: polyamine pools and SAMDC activity in leukocytes; experiment: polyamines and SAMDC activity in peripheral blood leukocytes; format: in vivo, human
Description: as §1

[8] = set-up: method as in data on file; details: rats and dogs; ref data on file; cited from earlier work
[9] = set-up: method as in unpublished; details: rat, basis of starting dose; ref unpublished; cited from earlier work
[10] = Table 3, 6 mg m-2 cycle-1, 4 patients studied
[11] = Table 3, 12 mg m-2 cycle-1, 3 patients studied
[12] = Table 3, 24 mg m-2 cycle-1, 3 patients studied
[13] = Table 3, 400 mg m-2 cycle-1, 6 patients studied
[14] = Table 3, 550 mg m-2 cycle-1, 6 patients studied
[15] = Table 3, 700 mg m-2 cycle-1, 5 patients studied
[16] = Table 3, all dose levels, 39 patients
[17] = Table 3, all dose levels, 39 patients, incl. combination
[18] = Table 4, after infusion (day 6-28), 550 mg m-2 cycle-1, 6 patients studied
[19] = Table 4, after infusion (day 6-28), 700 mg m-2 cycle-1, 5 patients studied
[20] = Table 4, after infusion (day 6-28), all dose levels, 39 patients
[21] = Table 4, after infusion (days 6-28), 3 mg m-2 cycle-1, 3 patients studied
[22] = Table 4, after infusion (days 6-28), 6 mg m-2 cycle-1, 4 patients studied
[23] = Table 4, after infusion (days 6-28), 24 mg m-2 cycle-1, 3 patients studied
[24] = Table 4, after infusion (days 6-28), 96 mg m-2 cycle-1, 3 patients studied
[25] = Table 4, after infusion (days 6-28), 400 mg m-2 cycle-1, 6 patients studied
[26] = Table 4, after infusion (days 6-28), 550 mg m-2 cycle-1, 6 patients studied
[27] = Table 4, after infusion (days 6-28), 700 mg m-2 cycle-1, 5 patients studied
[28] = Table 4, after infusion (days 6-28), all dose levels, 39 patients
[29] = Table 4, during infusion (day 1-5), 700 mg m-2 cycle-1, 5 patients studied
[30] = Table 4, during infusion (day 1-5), all dose levels, 39 patients

N=C(N)c1cccc2c1CCC2=NN=C(N)N [SAM486A]
effect on tumour growth [1]: inhibited tumour growth | mean terminal elimination t1/2 ([2]; all patients included in the analysis, standard deviation 23.1 h): 48.6 h | fraction of total drug administered excreted in urine ([2]; day 1): Approximately 3% | plasma SAM486A concentrations ([2]; first 10 patients at lowest dose levels, significant portions of sampling interval): below the limit of quantitation | terminal half-life (approximate) ([2]; plasma, patients): approximately 2 days | patients with grade 4 granulocytopenia ([3]; 550 mg m-2 cycle-1, six patients): three | maximum tolerated dose (MTD) ([3]; 120 h continuous infusion every 4 weeks): 400 mg m-2 cycle-1 | correlation coefficient AUC vs granulocytopenia ([3]; Figure 4): 0.6931 | correlation coefficient dose vs granulocytopenia ([3]; Figure 4): 0.5814 | Haemoglobin grade 1-4, no. of patients ([3]; Table 3, 3 mg m-2 cycle-1, 3 patients studied): 2 patients | Haemoglobin grade 1-4, no. of patients [3, 10]: 2 patients | Thrombocytes (platelets) grade 1-4, no. of patients [3, 10]: 1 patients | Thrombocytes grade 3-4, no. of patients [3, 10]: 1 patients | Haemoglobin grade 1-4, no. of patients [3, 11]: 2 patients | Haemoglobin grade 3-4, no. of patients [3, 11]: 1 patients | Haemoglobin grade 1-4, no. of patients [3, 12]: 3 patients | Haemoglobin grade 3-4, no. of patients [3, 12]: 1 patients | Haemoglobin grade 1-4, no. of patients ([3]; Table 3, 48 mg m-2 cycle-1, 4 patients studied): 2 patients | Haemoglobin grade 1-4, no. of patients ([3]; Table 3, 96 mg m-2 cycle-1, 3 patients studied): 1 patients | Leukocytes (WBC) grade 1-4, no. of patients ([3]; Table 3, 200 mg m-2 cycle-1, 2 patients studied): 1 patients | Granulocytes (AGC) grade 1-4, no. of patients [3, 13]: 2 patients | Granulocytes (AGC) grade 3-4, no. of patients [3, 13]: 1 patients | Haemoglobin grade 1-4, no. of patients [3, 13]: 3 patients | Leukocytes (WBC) grade 1-4, no. of patients [3, 13]: 2 patients | Granulocytes (AGC) grade 1-4, no. of patients [3, 14]: 4 patients | Granulocytes (AGC) grade 3-4, no. of patients [3, 14]: 4 patients | Haemoglobin grade 1-4, no. of patients [3, 14]: 4 patients | Haemoglobin grade 3-4, no. of patients [3, 14]: 1 patients | Leukocytes (WBC) grade 1-4, no. of patients [3, 14]: 5 patients | Leukocytes (WBC) grade 3-4, no. of patients [3, 14]: 3 patients | Thrombocytes (platelets) grade 1-4, no. of patients [3, 14]: 1 patients | Thrombocytes grade 3-4, no. of patients [3, 14]: 1 patients | Granulocytes (AGC) grade 1-4, no. of patients [3, 15]: 4 patients | Granulocytes (AGC) grade 3-4, no. of patients [3, 15]: 3 patients | Haemoglobin grade 1-4, no. of patients [3, 15]: 2 patients | Haemoglobin grade 3-4, no. of patients [3, 15]: 1 patients | Leukocytes (WBC) grade 1-4, no. of patients [3, 15]: 4 patients | Leukocytes (WBC) grade 3-4, no. of patients [3, 15]: 3 patients | Thrombocytes (platelets) grade 1-4, no. of patients [3, 15]: 2 patients | Haemoglobin grade 1-4, Total (%) [3, 16]: 21 (54) patients (%) | Haemoglobin grade 3-4, Total (%) [3, 16]: 4 (10) patients (%) | Thrombocytes grade 3-4, Total (%) [3, 16]: 2 (5) patients (%) | Granulocytes (AGC) grade 1-4, Total (%) [3, 17]: 12 (31) patients (%) | Granulocytes (AGC) grade 3-4, Total (%) [3, 17]: 9 (23) patients (%) | Leukocytes (WBC) grade 1-4, Total (%) [3, 17]: 14 (36) patients (%) | Leukocytes (WBC) grade 3-4, Total (%) [3, 17]: 7 (18) patients (%) | Fatigue grade 3-4, no. of patients ([3]; Table 4, after infusion (day 6-28), 400 mg m-2 cycle-1, 6 patients studied): 1 patients | Anorexia grade 3-4, no. of patients [3, 18]: 1 patients | Atrial fibrillation grade 3-4, no. of patients [3, 18]: 1 patients | Condition aggravated grade 3-4, no. of patients [3, 18]: 1 patients | Dementia grade 3-4, no. of patients [3, 19]: 1 patients | Dyspnea grade 3-4, no. of patients [3, 19]: 1 patients | Fatigue grade 3-4, no. of patients [3, 19]: 1 patients | Somnolence grade 3-4, no. of patients [3, 19]: 1 patients | Vesicular rash grade 3-4, no. of patients [3, 19]: 1 patients | Anorexia grade 3-4, Total (%) [3, 20]: 1 (3) patients (%) | Atrial fibrillation grade 3-4, Total (%) [3, 20]: 1 (3) patients (%) | Condition aggravated grade 3-4, Total (%) [3, 20]: 1 (3) patients (%) | Dementia grade 3-4, Total (%) [3, 20]: 1 (3) patients (%) | Dyspnea grade 3-4, Total (%) [3, 20]: 1 (3) patients (%) | Fatigue grade 3-4, Total (%) [3, 20]: 2 (5) patients (%) | Somnolence grade 3-4, Total (%) [3, 20]: 1 (3) patients (%) | Vesicular rash grade 3-4, Total (%) [3, 20]: 1 (3) patients (%) | Mucositis nos grade 3-4, Total (%) ([3]; Table 4, after infusion (day 6-28), all dose levels, 39 patients, incl. combination): 1 (3) patients (%) | Anorexia grade 1-4, no. of patients [3, 21]: 1 patients | Fatigue grade 1-4, no. of patients [3, 21]: 1 patients | Fatigue grade 1-4, no. of patients [3, 22]: 1 patients | Nausea grade 1-4, no. of patients [3, 22]: 1 patients | Fatigue grade 1-4, no. of patients ([3]; Table 4, after infusion (days 6-28), 12 mg m-2 cycle-1, 3 patients studied): 1 patients | Fatigue grade 1-4, no. of patients [3, 23]: 1 patients | Nausea grade 1-4, no. of patients [3, 23]: 1 patients | Vomiting grade 1-4, no. of patients [3, 23]: 1 patients | Nausea grade 1-4, no. of patients [3, 24]: 1 patients | Vomiting grade 1-4, no. of patients [3, 24]: 1 patients | Anorexia grade 1-4, no. of patients [3, 25]: 3 patients | Fatigue grade 1-4, no. of patients [3, 25]: 2 patients | Nausea grade 1-4, no. of patients [3, 25]: 1 patients | Anorexia grade 1-4, no. of patients [3, 26]: 1 patients | Fatigue grade 1-4, no. of patients [3, 26]: 2 patients | Nausea grade 1-4, no. of patients [3, 26]: 3 patients | Vomiting grade 1-4, no. of patients [3, 26]: 3 patients | Fatigue grade 1-4, no. of patients [3, 27]: 2 patients | Nausea grade 1-4, no. of patients [3, 27]: 2 patients | Vomiting grade 1-4, no. of patients [3, 27]: 3 patients | Anorexia grade 1-4, Total (%) [3, 28]: 5 (13) patients (%) | Fatigue grade 1-4, Total (%) [3, 28]: 10 (26) patients (%) | Vomiting grade 1-4, Total (%) [3, 28]: 8 (21) patients (%) | Nausea grade 1-4, Total (%) ([3]; Table 4, after infusion (days 6-28), all dose levels, 39 patients, incl. combination): 10 (26) patients (%) | Asthenia grade 3-4, no. of patients ([3]; Table 4, during infusion (day 1-5), 550 mg m-2 cycle-1, 6 patients studied): 1 patients | Condition aggravated grade 3-4, no. of patients [3, 29]: 1 patients | Vesicular rash grade 3-4, no. of patients [3, 29]: 1 patients | Vomiting grade 3-4, no. of patients [3, 29]: 1 patients | Asthenia grade 3-4, Total (%) [3, 30]: 1 (3) patients (%) | Condition aggravated grade 3-4, Total (%) [3, 30]: 1 (3) patients (%) | Vesicular rash grade 3-4, Total (%) [3, 30]: 1 (3) patients (%) | Vomiting grade 3-4, Total (%) [3, 30]: 1 (3) patients (%) | Nausea grade 1-4, no. of patients ([3]; Table 4, during infusion (days 1-5), 400 mg m-2 cycle-1, 6 patients studied): 1 patients | Nausea grade 1-4, no. of patients ([3]; Table 4, during infusion (days 1-5), 550 mg m-2 cycle-1, 6 patients studied): 2 patients | Nausea grade 1-4, no. of patients ([3]; Table 4, during infusion (days 1-5), 700 mg m-2 cycle-1, 5 patients studied): 2 patients | Nausea grade 1-4, Total (%) ([3]; Table 4, during infusion (days 1-5), all dose levels, 39 patients): 5 (13) patients (%) | mild to moderate nausea and vomiting, incidence ([3]; after infusion, any causality): 31% | fatigue, incidence in all patients ([3]; after the infusion, any causality): 51% | anorexia considered related to SAM486A, incidence ([3]; all patients): 13% | fatigue considered related to SAM486A, incidence ([3]; all patients): 26% | nausea considered related to SAM486A, incidence ([3]; all patients): 26% | vomiting considered related to SAM486A, incidence ([3]; all patients): 21% | mild to moderate nausea and vomiting, incidence ([3]; during infusion, any causality): 15% | changes in electrolytes, renal function, LVEF ([3]; in vivo): no significant drug-related changes | correlation coefficient Cmax vs granulocytopenia ([3]; in vivo): 0.6794 | dose with reversible dose-limiting neutropenia ([3]; in vivo): 550 mg m^–2cycle^–1 and 700 mg m^–2cycle^–1 | fever associated with granulocytopenia ([3]; in vivo): three | median day of granulocyte nadir ([3]; in vivo): 21 day of the cycle | patients with grade 4 granulocytopenia ([3]; in vivo): three out of five | patients with some worsening in performance status ([3]; in vivo): eight of the 11 | recommended dose for phase II studies ([3]; in vivo): 400 and 400 mg m-2 cycle-1 | time to spontaneous recovery from granulocyte nadir ([3]; without growth factors): ≤ 1 week | acute toxicity findings [4]: acute cardiovascular and respiratory | growth inhibitory IC50 [5]: micromolar range | drug level in tumours compared to plasma elimination profile [6]: marked accumulation of the drug was seen in tumours | effect of combination with 5FU and with cisplatin (tumour): Additive to synergistic effects | evaluable patients with marginal trend to increased SAMDC activity ([7]; 400 mg m-2 cycle-1 and above): eight of 13 | evaluable patients with trend to increased putrescine ([7]; 400 mg m-2 cycle-1 and above): 10 of the 11 | evaluable patients with trend to increased putrescine ([7]; 3-200 mg m-2 cycle-1): six of the 12 | evaluable patients with marginal trend to increased SAMDC activity ([7]; doses up to 200 mg m-2 cycle-1): nine of 18 | expected concomitant decrease in spermidine and spermine ([7]; peripheral blood leukocytes): could not be detected | metabolism and excretion [8]: hardly metabolized and predominantly renally excreted | plasma clearance and distribution [8]: multi-exponential with extensive distribution outside the plasma compartment | no-adverse-effect level [9]: 0.06 mg/kg/day

— PMC2363502
